In the NIST ThermoML archive (doi:10.1016/j.jct.2018.12.022):
Numbers after ± are expanded uncertainties.

What was measured:
[1] = 298.15 K, 101.33 kPa, Liquid
[2] = refractive index (Na D-line) (dimensionless); conditions: 298.15 K; 101.33 kPa; Liquid; Standard Abbe refractometry

`C[C@H](N)C(=O)[O-].C[N+](C)(C)CCO` [2-hydroxy-N,N,N-trimethylethanaminium L-alaninate] showed a viscosity ([1]; Falling or rolling sphere viscometry) of 715 ± 70 mPa·s, a mass density ([1]; Vibrating tube method) of 1122.56 ± 1.1 kg/m3 and a refractive index [2] of 1.4868 ± 0.0006.
